The source of these data is US11203591B2, “Substituted 6-azabenzimidazole compounds” (Gilead Sciences, Inc., priority 2018, dated 2021).

SMILES strings stand for the structures.

The target of one assay is human HPK1 (MAP4K1) (Homo sapiens (Human), UniProt Q92918). Description: HPK1 IC50 Assay (TR-FRET peptide phosphorylation). Type of assay: biochemical. Conditions: 0.15 nM HPK1, 10 μM ATP, 1 μM STK S1 peptide substrate; geometric mean. An outline of the steps: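 Readout: TR-FRET (665 nm/620 nm) after EDTA stop, detecting STK S1 peptide (1 μM) phosphorylation by 0.15 nM HPK1 kinase domain, ATP-pre-activated, at 10 μM ATP over 3 h, 25° C, pH 7.0. IC50s from four-parameter variable-slope fits, normalized to staurosporine and DMSO, averaged geometrically.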
Chain of human HPK1 (MAP4K1) (Q92918 17-274): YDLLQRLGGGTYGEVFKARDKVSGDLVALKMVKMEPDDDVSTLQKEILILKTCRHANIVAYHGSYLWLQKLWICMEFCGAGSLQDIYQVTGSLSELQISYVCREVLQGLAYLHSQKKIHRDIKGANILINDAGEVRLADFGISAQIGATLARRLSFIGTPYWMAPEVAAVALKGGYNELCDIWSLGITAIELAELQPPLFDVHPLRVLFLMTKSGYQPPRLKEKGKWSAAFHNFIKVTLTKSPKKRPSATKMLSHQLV
`Cc1cc(F)c(Nc2nc(-c3ccc4c(c3)N([C@]3(C)C[C@H](N5CCCCC5)C3)C(=O)C4(C)C)cc3ncn(C(C)C)c23)cc1C(=O)NC1(C(F)F)CC1` [Example 295, N-(1-(difluoromethyl)cyclopropyl)-5-((6-(3,3-dimethyl-1-((1s,3s)-1-methyl-3-(piperidin-1-yl)cyclobutyl)-2-oxoindolin-6-yl)-3-isopropyl-3H-imidazo[4,5-c]pyridin-4-yl)amino)-4-fluoro-2-methylbenzamide] returned a concentration for half-maximal inhibition (IC50) of 0.1 nM.
Same read-out and setting: the result for `CC(C)n1cnc2cc(-c3ccc4c(c3)N([C@]3(C)C[C@H](N5CCCCC5)C3)C(=O)C4(C)C)nc(Nc3cc(C(=O)NC4(C(F)F)CC4)c(Cl)c(F)c3F)c21` [Example 296, 2-Chloro-N-(1-(difluoromethyl)cyclopropyl)-5-((6-(3,3-dimethyl-1-((1s,3s)-1-methyl-3-(piperidin-1-yl)cyclobutyl)-2-oxoindolin-6-yl)-3-isopropyl-3H-imidazo[4,5-c]pyridin-4-yl)amino)-3,4-difluorobenzamide] reads 0.1 nM; that for `Cc1c(C(=O)NCC(F)F)cc(Nc2nc(-c3ccc4c(c3)N([C@H]3C[C@@](C)(N5CCCCC5)C3)C(=O)C4(C)C)cc3ncn(C(C)C)c23)c(F)c1F` [Example 268, N-(2,2-difluoroethyl)-5-((6-(3,3-dimethyl-1-((1s,3s)-3-methyl-3-(piperidin-1-yl)cyclobutyl)-2-oxoindolin-6-yl)-3-isopropyl-3H-imidazo[4,5-c]pyridin-4-yl)amino)-3,4-difluoro-2-methylbenzamide], 0.03 nM.

The assay is the same for the next values; noted with them: recombinant HPK1 kinase domain 0.15 nM, 10 μM ATP, 1 μM STK S1 peptide; geometric mean of multiple experiments.
With `CC(C)n1cnc2cc(-c3cnc4c(c3)N([C@H]3C[C@@](C)(N5CCC6CC6C5)C3)C(=O)C4(C)C)nc(Nc3cc(C(=O)NC4(C(F)F)CC4)c(Cl)c(F)c3F)c21` (mixture of isomers) [Example 260, 5-((6-(1-((1s,3s)-3-(3-azabicyclo[4.1.0]heptan-3-yl)-3-methylcyclobutyl)-3,3-dimethyl-2-oxo-2,3-dihydro-1H-pyrrolo[3,2-b]pyridin-6-yl)-3-isopropyl-3H-imidazo[4,5-c]pyridin-4-yl)amino)-2-chloro-N-(1-(difluoromethyl)cyclopropyl)-3,4-difluorobenzamide], the IC50 stood at 0.08 nM.
The same measure, in the same setting: the result for `Cc1ccc(Nc2nc(-c3ccc4c(c3)N([C@H]3C[C@@H](N5CCCCC5)C3)C(=O)C4(C)C)cc3ncn(C(C)C)c23)cc1C(=O)NC1(CF)CC1` [Example 174, 5-((6-(3,3-dimethyl-2-oxo-1-((1s,3s)-3-(piperidin-1-yl)cyclobutyl)indolin-6-yl)-3-isopropyl-3H-imidazo[4,5-c]pyridin-4-yl)amino)-N-(1-(fluoromethyl)cyclopropyl)-2-methylbenzamide] reads 0.09 nM.
On the same count and under the same terms, the result for `CNC(=O)c1cc(Nc2nc(-c3ccc4c(c3)N([C@H]3C[C@@H](N5CCC[C@@H](F)C5)C3)C(=O)C4(C)C)cc3ncn(C(C)C)c23)c(F)cc1C` [Example 107] reads 0.1 nM; that for `Cc1c(C(=O)NC2(C(F)F)CC2)cc(Nc2nc(-c3cnc4c(c3)N([C@H]3C[C@@](C)(N5CCOC(C)(C)C5)C3)C(=O)C4(C)C)cc3ncn(C(C)C)c23)c(F)c1F` [Example 188, N-(1-(Difluoromethyl)cyclopropyl)-5-((6-(1-((1s,3s)-3-(2,2-dimethylmorpholino)-3-methylcyclobutyl)-3,3-dimethyl-2-oxo-2,3-dihydro-1H-pyrrolo[3,2-b]pyridin-6-yl)-3-isopropyl-3H-imidazo[4,5-c]pyridin-4-yl)amino)-3,4-difluoro-2-methylbenzamide], 0.4 nM.
In the case of `Cc1ccc(Nc2nc(-c3ccc4c(c3)N([C@H]3C[C@@H](N5CCCCC5)C3)C(=O)C4(C)C)cc3ncn(C(C)C)c23)cc1C(=O)NCC(C)C` [Example 139], the IC50 came out at 0.06 nM.
Turning to `CNC(=O)c1cc(Nc2nc(-c3ccc4c(c3)N([C@H]3C[C@@H](N[C@@H]5CCOC[C@H]5C)C3)C(=O)C4(C)C)cc3ncn(C(C)C)c23)ccc1C` [Example 13], the IC50 worked out at 0.1 nM.
On the same count and under the same terms, the result for `CNC(=O)c1cc(Nc2nc(-c3ccc4c(c3)N([C@H]3C[C@@H](N5CCCCC5)C3)C(=O)C43CCN(S(=O)(=O)C4CC4)CC3)cc3ncn(C4CC4)c23)ccc1C` [Example 167] reads 0.1 nM.
Same read-out and setting: under `Cc1cc(F)c(Nc2nc(-c3ccc4c(c3)N([C@H]3C[C@@H](N5CCCCC5)C3)C(=O)C43CCN(C4COC4)CC3)cc3ncn(C(C)C)c23)cc1C(=O)NC(C)C` [Example 99] stands 0.2 nM.
Take `CCCNC(=O)c1cc(Nc2nc(-c3ccc4c(c3)N([C@H]3C[C@@H](N5CCCCC5)C3)C(=O)C4(C)C)cc3ncn(C(C)C)c23)ccc1C` [Example 24]: the half-inhibitory concentration (IC50) came to 0.08 nM.
Take `CNC(=O)c1cc(Nc2nc(-c3ccc4c(c3)N([C@H]3C[C@@H](N5CCCCC5)C3)C(=O)C43CCN(C(=O)C45CC(C4)C5)CC3)cc3ncn(C4CC4)c23)ccc1Cl` [Example 41]: the half-maximal inhibitory concentration (IC50) turned out to be 0.07 nM.
Still for that read-out and setting: under `CCNC(=O)c1cc(Nc2nc(-c3cnc4c(c3)N(C3CC(C)(N5CCC6C[C@@H]6C5)C3)C(=O)C4(C)C)cc3ncn(C(C)C)c23)c(F)c(F)c1Cl` (stereo partly shown) [Example 252, 5-((6-(1-((1s,3s)-3-(3-azabicyclo[4.1.0]heptan-3-yl)-3-methylcyclobutyl)-3,3-dimethyl-2-oxo-2,3-dihydro-1H-pyrrolo[3,2-b]pyridin-6-yl)-3-isopropyl-3H-imidazo[4,5-c]pyridin-4-yl)amino)-2-chloro-N-ethyl-3,4-difluorobenzamide] stands 0.05 nM; under `CC(C)n1cnc2cc(-c3cnc4c(c3)N([C@H]3C[C@@](C)(N5CCCC6(CC6)C5)C3)C(=O)C4(C)C)nc(Nc3cc(C(=O)NC4(C(F)F)CC4)c(Cl)c(F)c3F)c21` [Example 203, 2-Chloro-N-(1-(difluoromethyl)cyclopropyl)-5-((6-(3,3-dimethyl-1-((1s,3s)-3-methyl-3-(5-azaspiro[2.5]octan-5-yl)cyclobutyl)-2-oxo-2,3-dihydro-1H-pyrrolo[3,2-b]pyridin-6-yl)-3-isopropyl-3H-imidazo[4,5-c]pyridin-4-yl)amino)-3,4-difluorobenzamide], 0.07 nM; under `Cc1ccc(Nc2nc(-c3ccc4c(c3)N([C@H]3C[C@@H](N5CCCCC5)C3)C(=O)C4(C)C)cc3ncn(C(C)C)c23)cc1C(=O)NC1CCC1` [Example 2], 0.1 nM.
With `CCn1cnc2cc(-c3ccc4c(c3)N([C@H]3C[C@@H](NC(=O)C(C)(C)C)C3)C(=O)C4(C)C)nc(Nc3ccc(C)c(C(N)=O)c3)c21` [Example 133], the IC50 turned out to be 0.9 nM.
On the same count and under the same terms, the result for `CNC(=O)c1cc(Nc2nc(-c3ccc4c(c3)N([C@H]3C[C@@H](N5CCCC(C)(C)C5)C3)C(=O)C43CCN(C(C)=O)CC3)cc3ncn(C4CC4)c23)ccc1C` [Example 161] reads 0.06 nM; that for `Cc1cc(F)c(Nc2nc(-c3cnc4c(c3)N([C@H]3C[C@@](C)(N5C6CCC5COC6)C3)C(=O)C4(C)C)cc3ncn(C(C)C)c23)cc1C(=O)NC1(C(F)F)CC1` [Example 212, 5-((6-(1-((1s,3s)-3-(3-Oxa-8-azabicyclo[3.2.1]octan-8-yl)-3-methylcyclobutyl)-3,3-dimethyl-2-oxo-2,3-dihydro-1H-pyrrolo[3,2-b]pyridin-6-yl)-3-isopropyl-3H-imidazo[4,5-c]pyridin-4-yl)amino)-N-(1-(difluoromethyl)cyclopropyl)-4-fluoro-2-methylbenzamide], 0.3 nM.
Still for that read-out and setting: the result for `Cc1cc(F)c(Nc2nc(-c3ccc4c(c3)N([C@H]3C[C@@](C)(N5CCCCC5)C3)C(=O)C4(C)C)cc3ncn(C(C)C)c23)cc1C(=O)NC1(C(F)F)CC1` [Example 235, N-(1-(difluoromethyl)cyclopropyl)-5-((6-(3,3-dimethyl-1-((1s,3s)-3-methyl-3-(piperidin-1-yl)cyclobutyl)-2-oxoindolin-6-yl)-3-isopropyl-3H-imidazo[4,5-c]pyridin-4-yl)amino)-4-fluoro-2-methylbenzamide] reads 0.1 nM; that for `CNC(=O)c1cc(Nc2nc(-c3ccc4c(c3)N([C@H]3C[C@@H](NC(C)C)C3)C(=O)C4(C)C)cc3ncn(C(C)C)c23)c(F)cc1C` [Example 14], 0.3 nM.
Consider `CCNC(=O)c1cc(Nc2nc(-c3ccc4c(c3)N([C@H]3C[C@@](C)(N5CCCCC5)C3)C(=O)C4(C)C)cc3ncn(C(C)C)c23)c(F)c(F)c1C` [Example 239, 5-((6-(3,3-Dimethyl-1-((1s,3s)-3-methyl-3-(piperidin-1-yl)cyclobutyl)-2-oxoindolin-6-yl)-3-isopropyl-3H-imidazo[4,5-c]pyridin-4-yl)amino)-N-ethyl-3,4-difluoro-2-methylbenzamide], for which the IC50 was determined as 0.04 nM.
The same measure, in the same setting: the result for `CNC(=O)c1cc(Nc2nc(-c3ccc4c(c3)N([C@H]3C[C@@H](N5CCCCC5)C3)C(=O)C43CCN(C(=O)C(C)(C)C)CC3)cc3ncn(C4CC4)c23)ccc1C` [Example 98] reads 0.09 nM; that for `CC(C)n1cnc2cc(-c3cnc4c(c3)N(C3CC(C)(N5CCC6C[C@@H]6C5)C3)C(=O)C4(C)C)nc(Nc3cc(C(=O)NC4(C(F)F)CC4)c(Cl)c(F)c3F)c21` (stereo partly shown) [Example 262, 5-((6-(1-((1s,3s)-3-(3-azabicyclo[4.1.0]heptan-3-yl)-3-methylcyclobutyl)-3,3-dimethyl-2-oxo-2,3-dihydro-1H-pyrrolo[3,2-b]pyridin-6-yl)-3-isopropyl-3H-imidazo[4,5-c]pyridin-4-yl)amino)-2-chloro-N-(1-(difluoromethyl)cyclopropyl)-3,4-difluorobenzamide], 0.1 nM; that for `Cc1c(C(=O)NC2(CF)CC2)cc(Nc2nc(-c3cnc4c(c3)N([C@H]3C[C@@](C)(N5CCCCC5)C3)C(=O)C4(C)C)cc3ncn(C(C)C)c23)c(F)c1F` [Example 186, 5-((6-(3,3-Dimethyl-1-((1s,3s)-3-methyl-3-(piperidin-1-yl)cyclobutyl)-2-oxo-2,3-dihydro-1H-pyrrolo[3,2-b]pyridin-6-yl)-3-isopropyl-3H-imidazo[4,5-c]pyridin-4-yl)amino)-3,4-difluoro-N-(1-(fluoromethyl)cyclopropyl)-2-methylbenzamide], 0.07 nM.
